In patent US20100009860A1, “Device and method for analysis of interactions between biomolecules” (priority 2004, published 2010):
Ends that are not written are not given here.

Assays:
streptavidine [1] = conditions: cited from earlier work
[2] = test system: streptavidine-peptide/strep-tag II interaction; assay: Inhibition of streptavidine-peptide/strep-tag II interactions on MG3 peptide-pair array, fluorescence read-out; assay type: binding; conditions: membrane incubated 30 min with agent (0.5 mM biotine) before analysis; excitation 366 nm, emission 510-530 nm
Experimental: The reading of the signal by fluorescence and the inhibition of the streptavidine-peptide/strep-tag II-interactions using the natural product biotine and their derivatives are shown.
A) The chemical structure of the exemplary molecular fork MG3.
The peptide being at the side of Fmoc was marked with a danysl-radical and the peptide being at the Aloc-side was marked with fluoresceine. The analysis was performed by detection of the light emission at 510-530 nm after excitation with light of a wave length of 366 nm using the Raytest DIANA chemiluminescence detection system. […]
Peptide pairs were synthesized at MG3 (FIG. 17A), whereby the constant peptide block strep-tag II was synthesized at the Aloc-side and marked with a fluoresceine radical. […] Differences in fluorescence properties of the spots were obtained with different peptide pairs, an enhanced fluorescence emission was detected for interacting peptide pairs.
For the inhibition of interaction of the peptide pairs, the modified membrane was treated with high-affinated, low-affine and non-affine agents with similar chemical properties before the analysis. […] Subsequently, the analysis of the fluorescence properties of the spots was carried out.

streptavidine [3] = biological target: streptavidine (Streptomyces avidinii, UniProt P22629); assay: Streptavidine/strep-tag II interaction using inhibition with biotine (Western blot, immunodetection); assay type: binding; conditions: 60 μg streptavidine/6 μg biotine, 1 h pre-incubation
Chain of streptavidine (Streptomyces avidinii, UniProt P22629) (P22629 25-183): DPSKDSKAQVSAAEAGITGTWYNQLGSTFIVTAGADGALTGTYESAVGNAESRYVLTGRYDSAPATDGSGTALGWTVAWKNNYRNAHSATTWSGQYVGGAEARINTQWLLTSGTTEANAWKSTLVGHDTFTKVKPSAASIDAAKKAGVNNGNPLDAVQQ
Experimental: The cellulose, which was modified with peptide pairs corresponding to the embodiment shown in FIG. 7 by molecular forks MG1, was analyzed using the previously formed biotine/streptavidine-complex (60 μg streptavidine/6 μg biotine, 1 h pre-incubation) followed by Western Blot-analysis and immunodetection. A) Only just one side on the MG1 was attached to oligopeptides of the streptavidine-scans. The other side was modified by an acetylation reaction. B) Only just one side on the MG1 was attached to oligopeptides of the streptavidine-scan, and the strep-tag II-peptide was synthesized on the other side.
As described in example 2, peptide pairs were synthesized at the MG2, whereby the constant peptide block strep-tag II was synthesized at the Dde-side. At the Fmoc-side, overlapping 12 mer peptides were synthesized spanning the entire streptavidine-sequence with a 2-aminoacid shift. 60 μg streptavidine were pre-incubated using 6 μg biotine in the MP-buffer (30 mM tris-HCl, pH 7.6, 170 mM NaCl, 6.4 mM KCl, 0.05% Tween 20, 5% sucrose) for 60 min and it was subsequently incubated overnight at 4° C. while shaking with the cellulose. […]
A densitometric analysis of the intensities of each spot was performed by a GS-700 imaging densitometer (Bio-Rad) for quantifying the signals (FIG. 12).

FKBP12 [4] = biological target: T1, FKBP12 (Mus musculus, UniProt P26883); assay: Mapping of FKBP12 binding sites by classical SPOT-technology and protein interaction analysis; conditions: SPOT peptide scan of FAP48 / cytosolic domain of EGF-receptor
T1 sequence (P26883 whole entry, the tested form may be a part): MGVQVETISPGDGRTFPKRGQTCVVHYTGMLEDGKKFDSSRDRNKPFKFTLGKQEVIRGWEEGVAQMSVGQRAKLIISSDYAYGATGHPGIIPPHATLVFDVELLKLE
Source text: In a first step, the FKBP12-binding sites in the FAP48 were mapped using classical SPOT-technology and protein interaction analysis.
In a first step, the FKBP12 binding sites in the cytosolic domain of the EGF-receptor (EGFR) were mapped by classical SPOT-technology and protein interaction analysis. […] Then, peptide pairs were synthesized at the MG12, as described in example 2, whereby the constant peptide block Ac-PHVCRLLGICLTS was synthesized at the Dde-side. At the Fmoc-side, overlapping 13 mer peptides were synthesized spanning the entwire FKBP12-sequence with a 2-aminoacid shift. In each case 48 individual spots resulted therefrom.

FKBP12 [5] = biological target: T1, FKBP12; assay: Mapping of interaction region with peptide pairs on molecular fork MG2, FKBP12 as detection molecule; assay type: binding; conditions: 200 nM FKBP12, overlapping 13 mer FKBP12 peptides, 2-amino acid shift, cellulose
Experimental: A) The cellulose modified with peptide pairs by molecular forks MG2 was analyzed using 200 nM FKBP12 followed by Western Blot-analysis and immunodetection. The constant peptide block acetyl-KCPLLTAQFFEQS of FAP (Lys217-Ser229) was synthesized at the Dde-side. At the Fmoc-side, overlapping 13 mer peptides were synthesized spanning the entire FKBP12-sequence with a 2-amino acid shift. The densitometric analysis was performed using a GS-700 imaging densitometer (Bio-Rad). The ordinate represents the difference from the inverse value of the intensity of each spot and the inverse value of the average spot intensities. Large positive values correspond to a weak signal in the blot and show potential interactions within the peptide pair.
(§1) B) The cellulose modified with peptide pairs by molecular forks MG2 was analyzed using 200 nM FKBP12 followed by the Western Blot-analysis and immunodetection. […] The ordinate represents the difference from the inverse value of the intensity of each analyzed spot and the inverse value of the average spot intensities. […]
as §1, with “The” for “B) The”, “intensity.” for “intensities.”

N=C1N[C@H]2[C@H](CS[C@H]2CCCCC(=O)O)N1 [2-iminobiotine]
Ka (streptavidine [1]): 8e+06 M⁻¹

O=C(O)CCCC[C@@H]1SC[C@@H]2NC(=O)N[C@@H]21 [biotine]
fluorescence emission of the spots (inhibition of peptide pair interaction) [2]: decreased
bond of the streptavidine on the strep-tag II-peptide (streptavidine [3]): blocked

N[C@@H]1[C@H](CCCCC(=O)O)SC[C@@H]1N [diaminobiotine]
fluorescence emission of the spots (inhibition of peptide pair interaction) [2]: very similar to the original fluorescence behaviour without a pharmaceutical agent

KCPLLTAQFFEQS (Ac-KCPLLTAQFFEQS; not fully specified)
interaction to FKBP12 (FKBP12 [4]): mediate an interaction to FKBP12

LSPLYLLQFNMGH (Ac-LSPLYLLQFNMGH; not fully specified)
interaction to FKBP12 (FKBP12 [4]): mediate an interaction to FKBP12

PHVCRLLGICLTS (Ac-PHVCRLLGICLTS; cysteine pairing not given here)
interaction to FKBP12 (FKBP12 [4]): particularly strong interacting

acetyl-PHVCRLLGICLTS (Ac-PHVCRLLGICLTS; cysteine pairing not given here)
interaction region in FKBP12 (FKBP12 [5]): Met21-Ser67
